# Results from patent US11225504B2, “Functional polypeptide and its application thereof in preparing medicament for preventing and treating pulmonary fibrosis” (Guangdong Medical University, priority 2017, dated 2022).
# Residues, ends and D or L forms follow the SMILES beside them.
# How the values were obtained:
# [1] = test system: human normal lung epithelial cell BEAS-2B; assay: Growth effects on human normal lung epithelial cell BEAS-2B (FIG. 4); assay type: cell-based
# [2] = test system: bleomycin-induced pulmonary fibrosis; assay: Prevention and treatment of pulmonary fibrosis IPF experiment (bleomycin-induced, mice); assay type: in vivo, C57 mice
# Protocol: (1) Animals: SPF grade C57 mice, 22 g±2 g, 60 mice, females. The mice was divided into the following groups using the random digits table: the control group, the model group, the pirfenidone group (50 mg/kg), the EZY-1 polypeptide low dose group (0.25 mg/kg), the EZY-1 polypeptide medium dose group (0.5 mg/kg), the EZY-1 polypeptide high dose group (1.0 mg/kg), 10 animals per group. (3) After the mice were anesthetized by intraperitoneal injection of 1% sodium pentobarbital at a dose of 50 mg/kg, they are fixed to the operation console on their back. Their tongues were pulled out with tweezers to expose the trachea, and 5 mg/kg Bleomycin was slowly injected under a cold light source magnifying glass. Immediately after the injection, the operation console was erected and rotated for 3 minutes to evenly distribute the drug solution in the lungs. The control group was injected with an equal volume of isotonic saline in the same way as the previous method. After 10 days, the mice were intra-gastrically administered with 0.1 ml/10 g with drugs. The control group and the model group were intra-gastrically administered with an equal volume of isotonic saline. The other groups were intra-gastrically administered with the corresponding dose of the drug for 35 days, once a day. After 35 days of drug administration, the mice were anesthetized and sacrificed, and the two intact lung tissues were isolated and weighed. The same part of the right upper lobe was taken, fixed with 4% paraformaldehyde for 48 hours, and paraffin sections were generated for Hematoxylin-Eosin (HE) staining for histopathological observations. The same part of the […] was taken for the measurement of HYP content in the lung tissue. Plasma was collected for the measurement of T-SOD, MDA, and GSH-PX levels. Statistical analysis was performed using SPSS 17.0 software. Measurement data were expressed as mean±standard deviation (x±s). Comparison of the means in multiple samples was performed by one-way ANOVA. Comparison between groups was performed by t test, with P≤0.05 indicating statistically significant differences.
# [3] = 50 mg/kg intragastric once a day for 35 days, bleomycin mice, mean ± SD
SMILES,toxicity to normal cells (growth of BEAS-2B) [1],"GSH-PX (plasma) [2, 3]","HYP (lung tissue) [2, 3]","MDA (plasma) [2, 3]","T-SOD (plasma) [2, 3]","pathological changes of lung tissue (HE staining, FIG. 5) ([2]; EZY-1 low, medium and high dose (0.25, 0.5, 1.0 mg/kg), pirfenidone 50 mg/kg, 35 days)"
"CC[C@H](C)[C@H](NC(=O)CNC(=O)[C@H](CC(N)=O)NC(=O)[C@H](Cc1ccc(O)cc1)NC(=O)[C@@H](NC(=O)[C@@H](NC(=O)[C@H](CS)NC(=O)[C@H](Cc1ccccc1)NC(=O)[C@H](CS)NC(=O)[C@H](C)NC(=O)CNC(=O)[C@@H](NC(=O)[C@@H](N)CCCNC(=N)N)[C@@H](C)O)C(C)C)[C@@H](C)CC)C(=O)N[C@@H](CC(C)C)C(=O)N[C@@H](Cc1ccc(O)cc1)C(=O)N1CCC[C@H]1C(=O)O [EZY-1 polypeptide, RTGACFCVIYNGILYP] (H-RTGACFCVIYNGILYP-OH)",low toxicity to normal cells,,,,,
Cc1ccc(=O)n(-c2ccccc2)c1 [pirfenidone],,672.92 ± 98.72 active unit,48.36 ± 5.01 μg/g lung tissues Wet weight,6.52 ± 0.71 nmal/mL,156.05 ± 17.32 U/mL,"reduce alveolar structural damage, reduce collagen fiber production, and inhibit the inflammatory cell infiltration"
